Cytotoxicity data for 66 compounds are collected here from ChEMBL document CHEMBL3507680, “University of Dundee, Gates Library screen for HepG2 cell viability”.

Each structure is given as a SMILES string.

A short description of this data set: Human HepG2 cell viability assay in 384 well format. It is filed as toxicity, cell-based. Also noted: dose 125 nL, time 70.5 hour; concentration not given beside the values. The note with it: HepG2 cells, read-out: Inhibition.
For `CCC1=NN2C(=N)/C(=C\c3cccn3-c3ccc(Cl)cc3)C(=O)N=C2S1`, the cytotoxicity at 70.5 h was found to be 9.55%. On to `Cc1nn(C(=O)c2cccnc2)c(C)c1C`, for which the cytotoxicity at 70.5 h is 27.4%.

Take `O[C@@H]1C[C@@H](c2nc(-c3ccc(F)cc3)no2)N(C2CCOCC2)C1`: the cytotoxicity at 70.5 h is -3.33%. To `CC(C)(C)c1cc(C[C@H]2CNCC[C@H]2CC(=O)NCc2cccs2)no1` belongs -6.24%; to `Cc1noc([C@@H]2C[C@H](NC(=O)NC3CCCCC3)CN2C)n1`, -7.54%; to `Cc1noc([C@@H]2C[C@H](NC(=O)Nc3cccc(F)c3)CN2C)n1`, 6.23%. `Cc1ccc(N2C(=O)N[C@@H]3CCN(C(=O)C4CC4)[C@@H]3C2=O)cc1`: the cytotoxicity at 70.5 h was -15.3%. The value for `O=C1N[C@@H]2CCN(C(=O)c3ccccc3)[C@@H]2C(=O)N1c1ccc(F)cc1` was -12.9%; that for `COC(=O)[C@@H]1CN(C(=O)Nc2ccccc2)CCN1C(C)=O` was -7%; that for `COc1ccccc1-c1nnc([C@H]2CCN(C(=O)C3CC3)C2)o1` was 11.5%. To `FC(F)(F)c1ccc(-c2c[nH]c([C@@H]3COCCN3)n2)cc1` belongs -16%. To `COCC(=O)N1CCN2C(=O)OC[C@H]2C1` belongs 3.16%. As for `O=C1CO[C@H]2CN(Cc3ccc(F)c(F)c3)C[C@H]2N1`, the cytotoxicity at 70.5 h is -12.7%. `O=C1CO[C@H]2CN(Cc3ccc4c(c3)OCO4)C[C@H]2N1`: the cytotoxicity at 70.5 h was -7.08%. To `c1ccc2c(Cc3nnc([C@H]4CCNC4)o3)c[nH]c2c1` belongs -2.38%; to `Fc1ccc(-c2noc([C@@H]3Cc4nc[nH]c4CN3)n2)cc1`, -11.7%; to `Cc1ccc(-c2noc([C@@H]3Cc4nc[nH]c4CN3)n2)cc1`, -11.9%.

`CCNC(=O)NC[C@H]1COCc2nc3cc(C)ccc3n21`: the cytotoxicity at 70.5 h was -3.17%. As to `CCNC(=O)N1C[C@@H]2OCC(=O)N(C(C)C)[C@@H]2C1`, the cytotoxicity at 70.5 h was -0.389%. For `COc1ccc(-c2cc(C[C@@H]3C[C@H](N(C)C)C3(C)C)no2)cc1`, the cytotoxicity at 70.5 h turned out to be 5.02%. The value for `Cc1nn(CCC#N)c(C)c1[C@@H]1C=C[C@@H](NCc2ccc(F)cc2)C1` was -0.333%; that for `Cc1ccc(S(=O)(=O)Cc2noc([C@@H]3C[C@@H](O)CN3C(C)C)n2)cc1` was -8.79%; that for `CC1=C[C@@H](CC#N)[C@H](C(C)C)C[C@H]1CC(=O)N1CCN(CCO)CC1` was -8.18%. Regarding `COCC(=O)Nc1ccc(-c2noc([C@@H]3CCCN3C(C)C)n2)cn1`, the cytotoxicity at 70.5 h was -2.85%. The value for `COCc1cc(C[C@@H]2CC[C@H](O)[C@@H](CNCC(C)C)O2)no1` was -0.483%; that for `O=C(Nc1ccccc1)[C@H]1O[C@H](CCN2CCCCC2)CC[C@@H]1O` was -3.54%. For the compound `O=C1N(Cc2ccccn2)C[C@H]2CN(C3CCOCC3)CCN12`, the cytotoxicity at 70.5 h was -3.19%. On to `CC(C)(O)c1cc(CC2(NCC3CCCCC3)COC2)no1`, for which the cytotoxicity at 70.5 h was -16.3%. Turning to `CS(=O)(=O)NC[C@H]1OC[C@@H](NC2CCC(F)(F)CC2)[C@@H]1O`, the cytotoxicity at 70.5 h was -5.87%. For the compound `O=C(NC[C@H]1OC[C@@H](NCc2ccccc2F)[C@@H]1O)Nc1ccccc1`, the cytotoxicity at 70.5 h was -3.35%. To `CN(C)C[C@H]1O[C@H](Cc2cc(-c3ccccn3)on2)CC[C@@H]1O` belongs -4.76%; to `COc1cccc(CN2CCN3C(=O)NC[C@H]3C2)n1`, -7.27%; to `Cc1ccc(CN2C[C@H](O)C[C@H]2c2nc(-c3ccc(F)cc3)no2)cc1`, -7.37%. To `c1cnc2c(c1)nc1n2[C@@H](CNC2CCOCC2)COC1` belongs -4.98%. Consider `CC(C)NC(=O)NC[C@H]1OC[C@@H](NCc2ccccc2F)[C@@H]1O`, for which the cytotoxicity at 70.5 h is -4.73%. As for `Cc1cc2nc(CO[C@H]3CN(C4CCC4)C[C@H]3F)[nH]c2cc1C`, the cytotoxicity at 70.5 h was -2.01%. Regarding `c1cn2c(n1)CO[C@@H](CNCc1ccc3c(c1)OCO3)C2`, the cytotoxicity at 70.5 h was -4.1%.

Turning to `CC(C)N[C@@H]1CO[C@H](CNC(=O)Nc2ccccc2)[C@H]1O`, the cytotoxicity at 70.5 h was -2.59%.

Consider `CC(=O)N1C[C@@H](F)[C@@H](OCc2nc3ccccc3o2)C1`, for which the cytotoxicity at 70.5 h was -3.68%. The value for `COCCN1C[C@H]2CN(C(=O)c3ccc4c(c3)OCO4)CCN2C1=O` was -3.46%; that for `COc1cc(OC)c2c(=O)oc(CC(O)CC(C)=O)cc2c1` (stereo unspecified) was 9.76%; that for `CCc1noc(-c2cccc(OCC(=O)NC(C)C)c2)n1` was -7.23%. Consider `COCCNc1c(-c2ccc(C)cc2)c(=O)c1=O`, for which the cytotoxicity at 70.5 h is -9.49%.

As for `COCCCNc1c(-c2ccc(C)cc2)c(=O)c1=O`, the cytotoxicity at 70.5 h was -6.65%. The value for `CN(C)CCNc1c(-c2ccccc2)c(=O)c1=O` was -1.53%. For the compound `COc1ccc(OC)c(NC(=O)c2c(C)cn(C)c2CC(=O)O)c1`, the cytotoxicity at 70.5 h was -5.28%. For the compound `CN1CCN(c2ccc(NS(=O)(=O)c3ccc(Br)s3)cc2C(=O)O)CC1`, the cytotoxicity at 70.5 h turned out to be 24%.

Regarding `O=C(CCn1nc(C(=O)Nc2ccccc2)ccc1=O)Nc1nccs1`, the cytotoxicity at 70.5 h turned out to be 1.25%. For the compound `Cc1ccc2nc(CSCC(=O)Nc3nnc(C(C)C)s3)cc(=O)n2c1`, the cytotoxicity at 70.5 h is -6.09%. The value for `Cc1ccc(-n2nc(C)c3c(C)cc(OCC(=O)NC(C)C)nc32)cc1` was -1.77%. To `Cc1ccn(CCC(=O)NCc2ccc(C)o2)n1` belongs -1.65%. As to `Cc1nc(N2CCN(C)CC2)ncc1C(=O)N1CCN(C)CC1`, the cytotoxicity at 70.5 h is -4.76%. For the compound `CCOCCCNC(=O)NCc1c(C)nn(C)c1C`, the cytotoxicity at 70.5 h came out at 22.3%. Regarding `Cn1nnc(NCc2ccccc2OCc2ccc(Cl)cc2)n1`, the cytotoxicity at 70.5 h came to 29.2%. To `CCN1C(=O)CCCC12CCCN(C(=O)c1sccc1C)C2` (stereo unspecified) belongs -9.33%; to `CCN1C(=O)CCCC12CCCN(C(=O)c1occc1C)C2` (stereo unspecified), -10.4%. As for `CCN1C(=O)CCCC12CCCN(C(=O)c1cc(C)oc1C)C2` (stereo unspecified), the cytotoxicity at 70.5 h was -9.36%. To `CC(=O)N1CCC2(C1)CN(C(=O)C1CCOC1)C2` (stereo unspecified) belongs -11.2%; to `COCCNC(=O)c1ccc2ccc(N3CCN(CC4CC4)CC3)n2c1`, 24.5%. Regarding `CN1[C@H](CN2CCCC2)C[C@@H]2CN(C(=O)c3ccsc3)CC[C@@H]21`, the cytotoxicity at 70.5 h was determined as 11.2%. Turning to `O=C(NC[C@@]1(COc2cnccn2)C[C@@H](O)[C@@H](O)C1)C1CC1`, the cytotoxicity at 70.5 h came to 15%. On to `Cc1ccc(CN2CCc3nnc(CN4CCCC4=O)n3CC2)o1`, for which the cytotoxicity at 70.5 h was -3.79%. The value for `CNC(=O)CN1CCCC12CCN(C(=O)c1cccc(F)c1)CC2` was 24.1%; that for `CC[C@@H]1N(Cc2ccc(F)cc2)CCC[C@]12CCC(=O)N2C` was -9.15%; that for `Cc1ccc(CN2C[C@@H]3C[C@H](C(=O)NCC4CC4)N(C)[C@@H]3C2)o1` was 10.1%.

For the compound `CCc1ccc(CN2CC[C@H]3[C@H]2CC(=O)N3Cc2cccc(C)n2)o1`, the cytotoxicity at 70.5 h was -7.64%.
